According to patent publication US20240101576A1, “HETEROCYCLIC INHIBITORS OF EGFR AND/OR HER2, FOR USE IN THE TREATMENT OF CANCER” (Scorpion Therapeutics, Inc., priority 2020, published 2024):

Assays:
Assay type in all cases: cell-based
[1] = target: T1, EGFR exon 20 FQEA Ins A763_V764 (Ba/F3 cells) (Homo sapiens, UniProt P00533, INS763FQEA); experiment: Inhibitor activity on EGFR-dependent cell growth (CellTiter-Glo, 72 h), Ba/F3 EGFR exon 20 FQEA Ins; settings: read-out: BaF3 FQEA IC50
T1 construct: expressed in transfected cells; host or cells: Ba/F3 (murine pro-B cells), retroviral transduction, puromycin selection, IL3-independent pool
Procedure, shortened: (§1)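 IC50s derive from a sigmoidal dose–response fit of CellTiter-Glo signal. The signal was normalised between […]-treated cells and cell-free medium. Ba/F3 mutant-EGFR cells, seeded at 400–800/well depending on the line, had 72 h of exposure to a 10-point, 3-fold compound series.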

EGFR WT (Ba/F3 cells) = target: T2, EGFR WT (Ba/F3 cells) (Homo sapiens, UniProt P00533); experiment: Inhibitor activity on EGFR-dependent cell growth (CellTiter-Glo, 72 h), Ba/F3 EGFR WT; settings: read-out: BaF3 WT IC50
T2 construct: expressed in transfected cells; host or cells: Ba/F3 (murine pro-B cells), retroviral transduction, puromycin selection, maintained with EGF
T2 sequence (P00533 25-1210): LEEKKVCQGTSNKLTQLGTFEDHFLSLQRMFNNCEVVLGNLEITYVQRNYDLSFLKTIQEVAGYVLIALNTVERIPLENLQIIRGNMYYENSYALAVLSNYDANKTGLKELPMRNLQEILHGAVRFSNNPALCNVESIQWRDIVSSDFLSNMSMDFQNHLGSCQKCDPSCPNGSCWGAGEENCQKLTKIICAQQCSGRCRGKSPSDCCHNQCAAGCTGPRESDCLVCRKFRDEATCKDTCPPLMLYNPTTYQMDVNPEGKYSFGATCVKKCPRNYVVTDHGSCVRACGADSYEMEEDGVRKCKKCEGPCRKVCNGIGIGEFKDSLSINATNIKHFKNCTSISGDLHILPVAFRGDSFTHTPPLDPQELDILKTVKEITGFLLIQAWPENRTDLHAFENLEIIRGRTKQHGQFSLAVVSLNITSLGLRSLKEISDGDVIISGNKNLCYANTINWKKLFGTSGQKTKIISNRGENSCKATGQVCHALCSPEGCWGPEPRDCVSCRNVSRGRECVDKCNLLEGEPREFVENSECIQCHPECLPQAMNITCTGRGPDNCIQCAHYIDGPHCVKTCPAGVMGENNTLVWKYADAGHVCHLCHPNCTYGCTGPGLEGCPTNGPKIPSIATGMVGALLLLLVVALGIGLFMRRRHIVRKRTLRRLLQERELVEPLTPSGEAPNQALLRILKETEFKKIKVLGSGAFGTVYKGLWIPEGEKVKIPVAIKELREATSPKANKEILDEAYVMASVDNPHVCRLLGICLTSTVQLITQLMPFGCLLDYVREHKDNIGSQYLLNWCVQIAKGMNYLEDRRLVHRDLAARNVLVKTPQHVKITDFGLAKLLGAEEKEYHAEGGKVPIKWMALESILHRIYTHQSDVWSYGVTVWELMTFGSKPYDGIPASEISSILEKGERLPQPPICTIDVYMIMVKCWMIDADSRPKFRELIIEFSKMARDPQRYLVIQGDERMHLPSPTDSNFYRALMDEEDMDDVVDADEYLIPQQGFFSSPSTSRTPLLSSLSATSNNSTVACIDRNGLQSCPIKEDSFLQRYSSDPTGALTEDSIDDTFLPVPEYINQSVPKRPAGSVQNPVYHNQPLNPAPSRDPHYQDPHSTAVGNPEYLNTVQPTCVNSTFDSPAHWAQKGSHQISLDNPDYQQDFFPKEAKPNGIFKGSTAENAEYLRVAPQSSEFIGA
Procedure, shortened: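 This growth assay used Ba/F3 cells that depend on wild-type EGFR and are kept in EGF without IL3. Compounds were made up as 10 mM DMSO stocks and diluted 3-fold over 10 points. 120 nL went onto 600 cells/well. After 72 hours, 40 μL CellTiter-Glo was added and luminescence read on EnVision after 30 min.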

EGFR L858R (Ba/F3 cells) [2] = target: T3, EGFR L858R (Ba/F3 cells) (Homo sapiens, UniProt P00533, L858R); experiment: Inhibitor activity on EGFR-dependent cell growth (CellTiter-Glo, 72 h), Ba/F3 EGFR L858R; settings: read-out: BaF3 L858R IC50
T3 construct: expressed in transfected cells; host or cells: Ba/F3 (murine pro-B cells), retroviral transduction, puromycin selection, IL3-independent pool
Procedure, shortened: as §1

EGFR L858R (Ba/F3 cells) [3] = target: T3, EGFR L858R (Ba/F3 cells); experiment: Inhibitor activity on EGFR phosphorylation (pEGFR AlphaLISA, 2 h), Ba/F3 EGFR L858R
From the text: (§2) Example B. Inhibitor Activity on EGFR phosphorylation (pEGFR)
(§3) EGFR mutant Ba/F3 cells were generated by transduction with retrovirus containing vectors expressing EGFR L858R, EGFR exon 19del, EGFR L858R/C797S, EGFR exon 20 NPG Ins D770_N771, EGFR exon 20 ASV Ins V769_D770, or EGFR exon 20 SVD Ins D770_N771 genes along with a puromycin selection marker. Transduced cells are selected with puromycin for 7 days and are then be transferred into culture media without Interleukin 3 (IL3). Surviving cells are confirmed to express EGFR by Western blot and maintained as a pool. CUTO14 cells were obtained from Dr. Robert C. Doebele at the University of Colorado. The IC50 date are included in Table 6 and Table 7.
(§4) 1.1 Cells are harvested from flask into cell culture medium and the cell number counted.
(§5) 1.2 Cells are diluted with culture medium to the desired density and 40 μL of cell suspension is added into each well of 384-well cell culture plate and the seeding density is 50K cells/well (Ba/F3) or 12.5K cells/well (CUTO14).
(§6) 2 Compound Preparation and Treatment
(§7) 2.1 Test compounds are dissolved to 10 mM in a DMSO stock solution. 45 μL of stock solution is transferred to a 384 polypropylene plate (pp-plate). Perform 3-fold, 10-point dilution via transferring 15 μL compound into 30 μL DMSO using a TECAN (EVO200) liquid handler.
(§8) 2.2 Spin plates at room temperature at 1,000 RPM for 1 minute.
(§9) 2.3 Transfer 5 nL of diluted compound from compound source plate into the cell plate.
(§10) 2.4 After compound treatment for 2 hours, perform pEGFR detection by AlphaLISA for compound treatment plates as described in “Detection” section.
(§11) 3 Detection by pEGFR AlphaLISA (Perkin-Elmer)
(§12) 3.1 Plates are removed from incubators and equilibrated at room temperature for 10 minutes, and media was removed
(§13) 3.2 10 μL of lysis buffer is added and plates shaken at 600 rpm for 1 hr.
(§14) 3.3 Prepare acceptor mix just before use and dispense 5 μL of acceptor mix to all the wells. Shake 350 rpm for Ihr in the dark
(§15) 3.4 Prepare donor mix under low light conditions prior to use. Dispense 5 μL of donor mix to all the wells. Mix well on the shaker, seal and wrap in aluminum foil and incubate 1.5 hrs at room temperature in the dark
(§16) 3.5 Transfer 18.5 μL mixture to OptiPlate 384, and read using an Envision. The IC50 date were included in Table 6 and Table 7.

[4] = target: T4, EGFR exon 20 SVD Ins D770_N771 (Ba/F3 cells) (Homo sapiens, UniProt P00533, INS770SVD); experiment: Inhibitor activity on EGFR-dependent cell growth (CellTiter-Glo, 72 h), Ba/F3 EGFR exon 20 SVD Ins; settings: read-out: BaF3 SVD IC50
T4 construct: expressed in transfected cells; host or cells: Ba/F3 (murine pro-B cells), retroviral transduction, puromycin selection, IL3-independent pool
T4 sequence (P00533 with tags, fused parts or gaps INS770SVD): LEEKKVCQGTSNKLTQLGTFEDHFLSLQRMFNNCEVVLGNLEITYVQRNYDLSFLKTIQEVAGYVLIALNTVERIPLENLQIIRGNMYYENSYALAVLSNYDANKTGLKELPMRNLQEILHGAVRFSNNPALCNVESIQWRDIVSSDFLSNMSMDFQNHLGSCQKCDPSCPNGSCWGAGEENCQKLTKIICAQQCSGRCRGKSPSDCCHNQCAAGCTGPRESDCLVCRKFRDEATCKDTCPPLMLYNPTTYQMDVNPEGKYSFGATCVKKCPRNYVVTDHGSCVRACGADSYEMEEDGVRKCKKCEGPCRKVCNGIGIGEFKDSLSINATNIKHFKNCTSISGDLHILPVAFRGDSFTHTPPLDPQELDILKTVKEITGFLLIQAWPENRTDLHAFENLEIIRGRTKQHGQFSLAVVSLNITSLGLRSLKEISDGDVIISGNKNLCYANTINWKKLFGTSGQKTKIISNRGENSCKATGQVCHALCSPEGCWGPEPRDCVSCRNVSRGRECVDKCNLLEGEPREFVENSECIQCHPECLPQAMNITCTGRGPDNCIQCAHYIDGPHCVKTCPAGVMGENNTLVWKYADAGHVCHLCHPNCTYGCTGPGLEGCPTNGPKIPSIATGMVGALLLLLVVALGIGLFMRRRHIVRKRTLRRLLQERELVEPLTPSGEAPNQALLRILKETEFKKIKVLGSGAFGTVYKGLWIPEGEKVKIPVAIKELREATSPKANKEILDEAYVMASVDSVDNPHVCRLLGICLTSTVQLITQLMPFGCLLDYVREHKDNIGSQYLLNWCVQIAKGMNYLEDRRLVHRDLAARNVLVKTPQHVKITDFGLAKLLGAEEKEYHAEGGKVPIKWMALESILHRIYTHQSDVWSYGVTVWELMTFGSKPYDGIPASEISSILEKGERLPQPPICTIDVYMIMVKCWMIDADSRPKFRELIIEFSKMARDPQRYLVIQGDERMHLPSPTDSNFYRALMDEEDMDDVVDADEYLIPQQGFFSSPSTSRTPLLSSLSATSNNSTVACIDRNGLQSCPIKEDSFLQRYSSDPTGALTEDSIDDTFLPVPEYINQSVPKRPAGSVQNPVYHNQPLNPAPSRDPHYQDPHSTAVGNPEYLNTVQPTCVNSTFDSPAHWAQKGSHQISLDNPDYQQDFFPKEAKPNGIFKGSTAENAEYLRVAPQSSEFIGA
Procedure, shortened: as §1

[5] = target: T5, EGFR exon 19del (Ba/F3 cells) (Homo sapiens, UniProt P00533); experiment: Inhibitor activity on EGFR-dependent cell growth (CellTiter-Glo, 72 h), Ba/F3 EGFR exon 19del; settings: Ba/F3 EGFR exon 19del cell growth, read-out: BaF3 Del19 IC50
Procedure, shortened: as §1

[6] = target: T6, EGFR L858R/C797S (Ba/F3 cells) (Homo sapiens, UniProt P00533, C797S/L858R); experiment: Inhibitor activity on EGFR phosphorylation (pEGFR AlphaLISA, 2 h), Ba/F3 EGFR L858R/C797S
T6 construct: expressed in transfected cells; host or cells: Ba/F3 (murine pro-B cells), retroviral transduction, puromycin selection, IL3-independent pool
T6 sequence (P00533 25-1210 C797S/L858R): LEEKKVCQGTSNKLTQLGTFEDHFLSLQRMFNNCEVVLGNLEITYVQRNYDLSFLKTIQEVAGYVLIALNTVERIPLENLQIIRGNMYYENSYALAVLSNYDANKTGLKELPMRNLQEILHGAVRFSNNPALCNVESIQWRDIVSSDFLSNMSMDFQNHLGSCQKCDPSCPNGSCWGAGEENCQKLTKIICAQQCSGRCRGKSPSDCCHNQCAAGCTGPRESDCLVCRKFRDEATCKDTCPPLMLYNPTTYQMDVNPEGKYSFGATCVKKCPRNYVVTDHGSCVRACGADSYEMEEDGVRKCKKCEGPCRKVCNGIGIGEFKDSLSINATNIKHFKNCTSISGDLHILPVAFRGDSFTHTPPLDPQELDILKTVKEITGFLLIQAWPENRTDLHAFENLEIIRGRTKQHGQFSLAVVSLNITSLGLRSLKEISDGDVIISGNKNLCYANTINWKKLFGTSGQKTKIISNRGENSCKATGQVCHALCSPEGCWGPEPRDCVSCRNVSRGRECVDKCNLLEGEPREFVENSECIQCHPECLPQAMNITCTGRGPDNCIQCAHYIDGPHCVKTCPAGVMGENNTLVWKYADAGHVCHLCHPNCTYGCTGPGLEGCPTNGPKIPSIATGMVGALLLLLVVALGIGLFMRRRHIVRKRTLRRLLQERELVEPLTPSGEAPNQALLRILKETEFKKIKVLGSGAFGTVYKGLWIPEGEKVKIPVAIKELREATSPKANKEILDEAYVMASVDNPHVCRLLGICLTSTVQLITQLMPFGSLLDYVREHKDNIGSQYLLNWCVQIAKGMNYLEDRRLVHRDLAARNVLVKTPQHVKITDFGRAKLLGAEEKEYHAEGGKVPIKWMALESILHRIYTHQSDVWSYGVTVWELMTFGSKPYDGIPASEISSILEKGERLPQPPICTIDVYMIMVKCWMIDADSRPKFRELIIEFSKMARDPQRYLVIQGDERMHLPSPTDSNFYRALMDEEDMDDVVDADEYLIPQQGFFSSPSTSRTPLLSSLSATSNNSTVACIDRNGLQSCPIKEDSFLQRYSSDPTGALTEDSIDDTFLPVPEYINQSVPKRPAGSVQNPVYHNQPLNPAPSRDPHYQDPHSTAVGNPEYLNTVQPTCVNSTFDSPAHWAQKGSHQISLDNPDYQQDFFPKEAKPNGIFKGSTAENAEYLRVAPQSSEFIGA
From the text: as §2, §3, §4, §5, §6, §7, §8, §9, §10, §11, §12, §13, §14, §15, §16

[7] = target: T5, EGFR exon 19del (Ba/F3 cells); experiment: Inhibitor activity on EGFR phosphorylation (pEGFR AlphaLISA, 2 h), Ba/F3 EGFR exon 19del; settings: read-out: Del19 IC50 (pEGFR)
From the text: as §2, §3, §4, §5, §6, §7, §8, §9, §10, §11, §12, §13, §14, §15, §16

[8] = target: T6, EGFR L858R/C797S (Ba/F3 cells); experiment: Inhibitor activity on EGFR-dependent cell growth (CellTiter-Glo, 72 h), Ba/F3 EGFR L858R/C797S; settings: read-out: BaF3 L858R/C797S IC50
From the text: Example A. Inhibitor Activity on EGFR-Dependent Cell Growth
Cell lines are generated by transducing Ba/F3 cells with retroviruses containing vectors with EGFR WT, EGFR L858R, EGFR exon 19del, EGFR L858R/C797S, EGFR exon 20 NPG Ins D770_N771, EGFR exon 20 ASV Ins V769_D770, EGFR exon 20 SVD Ins D770_N771, or EGFR exon 20 FQEA Ins A763_V764 genes and a puromycin selection marker. Transduced cells are selected with puromycin for 7 days and are then be transferred into culture media without Interleukin 3 (IL3). EGFR WT cells are maintained with supplemental EGF. Surviving cells are confirmed to express EGFR by Western blot and maintained as a pool. The IC50 date were included in Table 6 and Table 7.
as §4
1.2 Cells are diluted with culture medium to the desired density and 40 μL of cell suspension is added into each well of 384-well cell culture plate and the seeding density is 800 (FQEA, exon 19del), 600 (WT, NPG, L858R/C797S), or 400 (ASV, SVD, L858R) cells/well.
as §6, §7, §8
2.3 Transfer 120 nL of diluted compound from compound source plate into the cell plate.
2.4 After compound treatment for 72 hours, perform CTG detection for compound treatment plates as described in “Detection” section.
3.1 Plates are removed from incubators and equilibrated at room temperature for 15 minutes.
3.2 Thaw the CellTiter Glo reagents and allow to equilibrate to room temperature before the experiment.
3.3 Add 40 μL of CellTiter-Glo reagent into each well (at 1:1 to culture medium). Then place the plates at room temperature for 30 min followed by reading on EnVision.
4.1 Inhibition activity is calculated following the formula below:
% Inhibition=100×(LumHC−LumSample)/(LumHC−LumLC) • where HC is obtained from cells treated with 0.1% DMSO only; and LC is obtained from culture medium only.
4.2 2. Calculate the IC50 by fitting the Curve using Xlfit (v5.3.1.3), equation 201.
Y=Bottom+(Top−Bottom)/(1+10^((Log IC50−X)*HillSlope))

[9] = target: T7, EGFR exon 20 ASV Ins V769_D770 (Ba/F3 cells) (Homo sapiens, UniProt P00533, INS769ASV); experiment: Inhibitor activity on EGFR-dependent cell growth (CellTiter-Glo, 72 h), Ba/F3 EGFR exon 20 ASV Ins; settings: read-out: BaF3 ASV IC50
T7 construct: expressed in transfected cells; host or cells: Ba/F3 (murine pro-B cells), retroviral transduction, puromycin selection, IL3-independent pool
T7 sequence (P00533 with tags, fused parts or gaps INS769ASV): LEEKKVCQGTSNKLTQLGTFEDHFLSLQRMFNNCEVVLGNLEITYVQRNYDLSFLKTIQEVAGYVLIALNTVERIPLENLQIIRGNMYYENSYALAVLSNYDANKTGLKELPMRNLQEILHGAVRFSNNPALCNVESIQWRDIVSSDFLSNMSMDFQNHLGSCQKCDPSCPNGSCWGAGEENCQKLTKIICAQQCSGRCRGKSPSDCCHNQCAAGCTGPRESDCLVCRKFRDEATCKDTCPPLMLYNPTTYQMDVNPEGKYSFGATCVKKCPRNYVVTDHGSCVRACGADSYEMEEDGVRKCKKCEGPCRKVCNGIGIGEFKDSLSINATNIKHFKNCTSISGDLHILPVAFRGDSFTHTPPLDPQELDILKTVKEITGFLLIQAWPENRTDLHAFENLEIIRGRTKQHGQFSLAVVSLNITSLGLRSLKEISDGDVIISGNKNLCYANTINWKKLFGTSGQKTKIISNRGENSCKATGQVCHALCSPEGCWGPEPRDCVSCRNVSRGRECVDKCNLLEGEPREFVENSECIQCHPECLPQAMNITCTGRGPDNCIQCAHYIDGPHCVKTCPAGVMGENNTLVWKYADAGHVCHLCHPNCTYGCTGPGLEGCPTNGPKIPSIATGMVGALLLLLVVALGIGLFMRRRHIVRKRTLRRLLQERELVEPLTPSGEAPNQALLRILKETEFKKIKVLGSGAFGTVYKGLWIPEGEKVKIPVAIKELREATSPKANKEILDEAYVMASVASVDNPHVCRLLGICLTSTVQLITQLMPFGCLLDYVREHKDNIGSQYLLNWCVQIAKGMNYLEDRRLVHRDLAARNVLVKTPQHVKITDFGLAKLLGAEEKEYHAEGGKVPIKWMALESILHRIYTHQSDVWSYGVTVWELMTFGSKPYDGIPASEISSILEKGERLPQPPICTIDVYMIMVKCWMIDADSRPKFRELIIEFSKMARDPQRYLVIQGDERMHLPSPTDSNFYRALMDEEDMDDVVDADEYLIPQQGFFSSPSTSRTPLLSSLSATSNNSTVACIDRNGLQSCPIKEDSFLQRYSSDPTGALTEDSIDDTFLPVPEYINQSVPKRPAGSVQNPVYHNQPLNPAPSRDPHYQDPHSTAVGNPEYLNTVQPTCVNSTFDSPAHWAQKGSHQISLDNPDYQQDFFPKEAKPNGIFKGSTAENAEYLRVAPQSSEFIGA
Procedure, shortened: as §1

SMILES | IC50 [1] | IC50 (EGFR WT (Ba/F3 cells)) | IC50 (EGFR L858R (Ba/F3 cells) [2]) | IC50 (EGFR L858R (Ba/F3 cells) [3]) | IC50 [4] | IC50 [5] | IC50 [6] | IC50 [7] | IC50 [8] | IC50 [9]
COc1c(Cl)cccc1Nc1c(-c2ccnc3ccc(OCC(F)F)nc23)[nH]c2c1C(=O)NCC2 [compound 733, 3-[(3-chloro-2-methoxyphenyl)amino]-2-[6-(2,2-difluoroethoxy)-1,5-naphthyridin-4-yl]-1H,5H,6H,7H-pyrrolo[3,2-c]pyridin-4-one] | < 100 nM | 100 to 1000 nM | < 100 nM | < 100 nM | < 100 nM | < 100 nM | < 100 nM | < 100 nM | < 100 nM | < 100 nM
COc1c(Cl)cccc1Nc1c(-c2ccncc2F)[nH]c2c1C(=O)NC[C@H]2CC(F)F [Compound 820, (7R)-3-[(3-chloro-2-methoxyphenyl)amino]-7-(2,2-difluoroethyl)-2-(3-fluoropyridin-4-yl)-1H,5H,6H,7H-pyrrolo[3,2-c]pyridin-4-one] | 100 to 1000 nM | > 1000 nM | < 100 nM | < 100 nM | 100 to 1000 nM | < 100 nM | < 100 nM | < 100 nM | < 100 nM | 100 to 1000 nM
COCC[C@H]1CNC(=O)c2c1[nH]c(-c1ccncn1)c2Nc1cccc(Cl)c1OC [445b] | 100 to 1000 nM | > 1000 nM | < 100 nM | < 100 nM | 100 to 1000 nM | < 100 nM | < 100 nM | < 100 nM | < 100 nM | 100 to 1000 nM
COc1c(Cl)cccc1Nc1c(-c2ccncc2F)[nH]c2c1C(=O)NCC21CCOCC1 [Compound 778, 3′-[(3-chloro-2-methoxyphenyl)amino]-2′-(3-fluoropyridin-4-yl)-5′,6′-dihydro-1′H-spiro[oxane-4,7′-pyrrolo[3,2-c]pyridin]-4′-one] | 100 to 1000 nM | > 1000 nM | < 100 nM | < 100 nM | 100 to 1000 nM | < 100 nM | 100 to 1000 nM | < 100 nM | < 100 nM | 100 to 1000 nM
COc1c(Cl)cccc1Nc1c(-c2ccncc2F)[nH]c2c1C(=O)NC[C@@]21CCN(CC(F)F)C1 [compound 822] | 100 to 1000 nM | > 1000 nM | < 100 nM | < 100 nM | < 100 nM | < 100 nM | < 100 nM | < 100 nM | < 100 nM | 100 to 1000 nM
COc1c(Cl)cccc1Nc1c(-c2ccncc2F)[nH]c2c1C(=O)NC[C@@H]2CC(F)F [Compound 819, (7S)-3-[(3-chloro-2-methoxyphenyl)amino]-7-(2,2-difluoroethyl)-2-(3-fluoropyridin-4-yl)-1H,5H,6H,7H-pyrrolo[3,2-c]pyridin-4-one] | 100 to 1000 nM | > 1000 nM | < 100 nM | < 100 nM | 100 to 1000 nM | < 100 nM | < 100 nM | < 100 nM | < 100 nM | 100 to 1000 nM
COc1ncc2nccc(-c3[nH]c4c(c3Nc3cccc(F)c3C)C(=O)NCC4)c2n1 [Compound 794, 3-[(3-fluoro-2-methylphenyl)amino]-2-[2-methoxypyrido[3,2-d]pyrimidin-8-yl]-1H,5H,6H,7H-pyrrolo[3,2-c]pyridin-4-one] | < 100 nM | 100 to 1000 nM | < 100 nM | < 100 nM | < 100 nM | < 100 nM | < 100 nM | < 100 nM | < 100 nM | < 100 nM
